# System: brainstem
# Experiment: Test of the effect of oral methylphenidate on evoked averaged brainstem response in a patient with ADHD
# Assay type: in vivo, human
# Procedure: To emphasize the importance of using the subject as its own reference when conducting herein described tests, FIG. 8a-c is showing a test of the effect of oral methylphenidate medication in a patient with ADHD. In this test each of the train of sound pulses will repeatedly present sound pulses to the patient for thirty seconds and for each sound pulse presented to the subject a corresponding response signal is recorded. The response signal for each set of train of sound pulses is then averaged to obtain an evoked averaged brainstem response.
# In FIG. 8a, a measuring with only unmodified sound pulses, i.e. the sound stimuli comprising only one train being a train of unmodified sound pulses 72. Sound stimuli were presented twice to the subject (at t0+0 and t0+60 sec) and the corresponding response signals were recorded and evoked averaged brainstem responses were established 74a, 74b. This was done when the patient was not under influence of methylphenidate medication, i.e. baseline or control state. The measured variable is here an absolute value 70 measured in μV of the amplitude of peak III. […] Both times the corresponding response signals were recorded and evoked averaged brainstem responses were established 74c, 74d.
# In FIG. 8b, a measuring with only modified sound pulses, i.e. the sound stimuli comprising only one train being a train of modified sound pulses 73. Sound stimuli were presented twice to the subject (at t0+0 and t0+60 sec) and the corresponding response signals were recorded and evoked averaged brainstem responses were established 75a, 75b. This was done when the patient was not under influence of methylphenidate medication, i.e. baseline or control state. The measured variable is here an absolute value 71 measured in NV of the amplitude of peak III. […] Both times the corresponding response signals were recorded and evoked averaged brainstem responses were established 75c, 75d. […]
smiles,measurement,setting,value
COC(=O)C(c1ccccc1)C1CCCCN1 (stereo not drawn) [methylphenidate],"methylphenidate effect on amplitude of peak III (absolute value), only modified sound pulses","single train of modified sound pulses, t1+0 and t1+60 sec vs drug-free baseline, FIG. 8b",no detectable methylphenidate effect could be established
same,"methylphenidate effect on amplitude of peak III (absolute value), only unmodified sound pulses","single train of unmodified sound pulses, t1+0 and t1+60 sec vs drug-free baseline, FIG. 8a",no detectable methylphenidate effect could be established
same,methylphenidate effect on relative measure (modified train averaged evoked brainstem response as a percentage of the unmodified average evoked response),"unmodified train followed by modified train, compared at t1+60 sec and t1+120 sec vs drug-free baseline, FIG. 8c",detectable methylphenidate effect could be seen

# Source: patent US10575752B2, “System and method for determination of a brainstem response state development” (SensoDetect AB, priority 2010, dated 2020)
